Details: pre-tested baboon plasma following intravenous infusion

Question: For `CCCCCCCCCCNCCN[C@@]1(C)C[C@H](O[C@H]2[C@H](Oc3c4cc5cc3Oc3ccc(cc3Cl)[C@@H](O)[C@@H](NC(=O)[C@@H](CC(C)C)NC)C(=O)N[C@@H](CC(N)=O)C(=O)N[C@H]5C(=O)N[C@H]3C(=O)N[C@H](C(=O)N[C@H](C(=O)O)c5cc(O)c(CNCP(=O)(O)O)c(O)c5-c5cc3ccc5O)[C@H](O)c3ccc(c(Cl)c3)O4)O[C@H](CO)[C@@H](O)[C@@H]2O)O[C@@H](C)[C@H]1O` [telavancin], which “lowest concentration of telavancin determined in pre-tested baboon plasma” value is on record?
Answer: Its value is “approximately 200 ng/ml”.

Reference: publication PMC4127372 (Journal of pharmaceutical and biomedical analysis, 2014)
